Data: ChEMBL document CHEMBL5291721, “A preclinical secondary pharmacology resource illuminates target-adverse drug reaction associations of marketed drugs” (Nat Commun, 2023)

Assays:
D(3) dopamine receptor = D(3) dopamine receptor (Homo sapiens, UniProt P35462)
[1] = target: Muscarinic acetylcholine receptor M3 (Homo sapiens, UniProt P20309)
Motilin receptor = Motilin receptor (Homo sapiens, UniProt O43193)
[2] = target: T1, 5-hydroxytryptamine receptor 3A (Homo sapiens, UniProt P46098); type: functional
T1 sequence (P46098 whole entry): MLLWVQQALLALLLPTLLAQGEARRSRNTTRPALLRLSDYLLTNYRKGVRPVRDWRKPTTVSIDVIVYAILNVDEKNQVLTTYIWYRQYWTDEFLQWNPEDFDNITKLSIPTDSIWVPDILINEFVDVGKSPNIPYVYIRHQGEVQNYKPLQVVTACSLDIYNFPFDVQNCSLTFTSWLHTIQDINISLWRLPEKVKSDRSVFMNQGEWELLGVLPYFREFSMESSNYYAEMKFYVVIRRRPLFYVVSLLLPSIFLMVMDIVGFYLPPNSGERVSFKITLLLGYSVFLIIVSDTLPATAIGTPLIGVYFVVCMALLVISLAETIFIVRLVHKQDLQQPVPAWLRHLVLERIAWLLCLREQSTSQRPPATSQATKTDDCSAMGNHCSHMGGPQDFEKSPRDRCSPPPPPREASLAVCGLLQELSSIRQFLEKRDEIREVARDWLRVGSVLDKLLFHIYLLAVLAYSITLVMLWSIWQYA

[3] = target: T2, Alpha-2B adrenergic receptor (Homo sapiens, UniProt P18089)
T2 sequence (P18089 whole entry): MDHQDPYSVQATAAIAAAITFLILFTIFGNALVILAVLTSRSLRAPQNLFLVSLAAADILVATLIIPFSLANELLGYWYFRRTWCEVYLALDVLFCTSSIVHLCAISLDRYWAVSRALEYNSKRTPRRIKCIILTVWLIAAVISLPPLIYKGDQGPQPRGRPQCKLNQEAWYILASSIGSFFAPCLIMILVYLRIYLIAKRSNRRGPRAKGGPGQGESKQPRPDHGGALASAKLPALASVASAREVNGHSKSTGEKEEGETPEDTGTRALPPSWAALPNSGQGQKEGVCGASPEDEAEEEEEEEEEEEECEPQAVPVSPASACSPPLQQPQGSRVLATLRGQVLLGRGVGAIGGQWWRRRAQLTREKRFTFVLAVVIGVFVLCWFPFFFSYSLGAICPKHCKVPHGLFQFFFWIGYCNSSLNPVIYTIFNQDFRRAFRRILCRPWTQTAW

[4] = target: T3, Amine oxidase [flavin-containing] A (Homo sapiens, UniProt P21397); type: functional
T3 sequence (P21397 whole entry): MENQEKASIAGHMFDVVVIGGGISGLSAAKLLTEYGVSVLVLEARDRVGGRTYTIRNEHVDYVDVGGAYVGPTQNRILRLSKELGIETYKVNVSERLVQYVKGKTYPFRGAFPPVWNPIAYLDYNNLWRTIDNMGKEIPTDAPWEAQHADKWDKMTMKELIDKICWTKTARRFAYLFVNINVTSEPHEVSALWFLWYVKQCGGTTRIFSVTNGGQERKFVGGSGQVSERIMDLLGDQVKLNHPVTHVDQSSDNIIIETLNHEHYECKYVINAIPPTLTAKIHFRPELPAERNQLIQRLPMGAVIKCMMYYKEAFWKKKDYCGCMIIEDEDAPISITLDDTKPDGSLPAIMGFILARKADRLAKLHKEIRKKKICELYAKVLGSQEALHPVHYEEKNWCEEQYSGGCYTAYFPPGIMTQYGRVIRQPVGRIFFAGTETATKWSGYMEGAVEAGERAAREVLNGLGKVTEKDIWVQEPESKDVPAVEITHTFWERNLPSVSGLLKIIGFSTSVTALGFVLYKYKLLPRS

Adenosine receptor A1 = target: T4, Adenosine receptor A1 (Homo sapiens, UniProt P30542)
T4 sequence (P30542 whole entry): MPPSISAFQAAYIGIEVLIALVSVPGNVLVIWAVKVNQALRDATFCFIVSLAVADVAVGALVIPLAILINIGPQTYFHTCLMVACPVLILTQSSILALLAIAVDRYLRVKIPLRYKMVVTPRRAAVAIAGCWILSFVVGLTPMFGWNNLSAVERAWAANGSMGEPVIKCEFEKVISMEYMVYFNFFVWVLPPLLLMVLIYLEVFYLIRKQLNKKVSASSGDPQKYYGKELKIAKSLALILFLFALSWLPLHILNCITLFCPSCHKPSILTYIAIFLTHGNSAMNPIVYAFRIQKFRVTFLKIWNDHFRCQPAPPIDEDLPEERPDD

Histamine H3 receptor = Histamine H3 receptor (Homo sapiens, UniProt Q9Y5N1)
[5] = target: Neuronal acetylcholine receptor subunit alpha-4 (Homo sapiens, UniProt P43681)
[6] = target: Delta-type opioid receptor (Homo sapiens, UniProt P41143)
Note: assay procedure not described here.

Histamine H3 receptor, sequence (Q9Y5N1 whole entry): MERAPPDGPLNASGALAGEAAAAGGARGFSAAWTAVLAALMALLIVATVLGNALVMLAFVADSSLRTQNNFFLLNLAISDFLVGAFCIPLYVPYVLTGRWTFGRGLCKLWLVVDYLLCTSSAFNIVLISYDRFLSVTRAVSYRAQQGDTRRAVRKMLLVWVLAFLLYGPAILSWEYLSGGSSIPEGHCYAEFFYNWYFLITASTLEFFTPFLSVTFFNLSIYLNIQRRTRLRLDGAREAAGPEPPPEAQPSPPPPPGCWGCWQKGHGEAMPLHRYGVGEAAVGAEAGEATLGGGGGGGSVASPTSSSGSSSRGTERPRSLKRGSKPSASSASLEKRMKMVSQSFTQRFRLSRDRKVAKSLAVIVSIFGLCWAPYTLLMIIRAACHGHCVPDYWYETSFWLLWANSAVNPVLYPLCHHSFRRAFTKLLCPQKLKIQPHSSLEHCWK
Delta-type opioid receptor, sequence (P41143 whole entry): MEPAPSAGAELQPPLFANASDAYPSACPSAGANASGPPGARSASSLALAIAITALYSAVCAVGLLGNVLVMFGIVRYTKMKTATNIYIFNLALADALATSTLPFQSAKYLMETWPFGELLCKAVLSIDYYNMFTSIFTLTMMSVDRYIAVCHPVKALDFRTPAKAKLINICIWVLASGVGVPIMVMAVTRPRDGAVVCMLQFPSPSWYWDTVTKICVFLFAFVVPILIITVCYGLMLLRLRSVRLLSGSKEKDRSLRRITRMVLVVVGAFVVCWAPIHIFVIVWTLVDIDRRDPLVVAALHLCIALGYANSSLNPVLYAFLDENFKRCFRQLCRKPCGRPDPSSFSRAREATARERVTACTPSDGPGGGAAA
Neuronal acetylcholine receptor subunit alpha-4, sequence (P43681 whole entry): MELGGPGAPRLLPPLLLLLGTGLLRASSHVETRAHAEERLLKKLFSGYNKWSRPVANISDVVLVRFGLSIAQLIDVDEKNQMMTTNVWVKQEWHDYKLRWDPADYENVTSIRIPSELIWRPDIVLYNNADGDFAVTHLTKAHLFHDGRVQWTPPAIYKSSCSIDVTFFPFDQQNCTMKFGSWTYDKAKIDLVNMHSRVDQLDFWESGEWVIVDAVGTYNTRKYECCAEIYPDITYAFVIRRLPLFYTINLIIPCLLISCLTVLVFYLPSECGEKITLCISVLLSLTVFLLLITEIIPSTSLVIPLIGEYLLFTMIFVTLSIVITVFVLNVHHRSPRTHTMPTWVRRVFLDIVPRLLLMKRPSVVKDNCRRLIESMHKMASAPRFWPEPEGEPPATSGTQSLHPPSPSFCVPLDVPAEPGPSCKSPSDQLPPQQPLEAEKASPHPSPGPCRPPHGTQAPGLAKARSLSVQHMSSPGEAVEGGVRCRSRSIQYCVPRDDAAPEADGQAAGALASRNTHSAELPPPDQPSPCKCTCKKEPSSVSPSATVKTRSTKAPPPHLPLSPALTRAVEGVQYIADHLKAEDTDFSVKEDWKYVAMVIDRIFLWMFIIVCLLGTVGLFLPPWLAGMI
D(3) dopamine receptor, sequence (P35462 whole entry): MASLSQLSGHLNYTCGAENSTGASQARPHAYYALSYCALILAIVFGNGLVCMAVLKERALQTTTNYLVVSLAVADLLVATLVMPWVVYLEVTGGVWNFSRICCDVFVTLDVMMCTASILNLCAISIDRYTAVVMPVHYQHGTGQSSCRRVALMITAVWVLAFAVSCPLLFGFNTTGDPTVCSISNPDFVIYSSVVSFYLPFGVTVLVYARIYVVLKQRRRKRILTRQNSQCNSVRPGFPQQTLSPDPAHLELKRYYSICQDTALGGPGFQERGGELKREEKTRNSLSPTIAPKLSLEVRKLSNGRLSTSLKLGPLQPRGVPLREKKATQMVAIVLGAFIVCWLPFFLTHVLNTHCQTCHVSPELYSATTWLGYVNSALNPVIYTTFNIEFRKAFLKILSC
Muscarinic acetylcholine receptor M3, sequence (P20309 whole entry): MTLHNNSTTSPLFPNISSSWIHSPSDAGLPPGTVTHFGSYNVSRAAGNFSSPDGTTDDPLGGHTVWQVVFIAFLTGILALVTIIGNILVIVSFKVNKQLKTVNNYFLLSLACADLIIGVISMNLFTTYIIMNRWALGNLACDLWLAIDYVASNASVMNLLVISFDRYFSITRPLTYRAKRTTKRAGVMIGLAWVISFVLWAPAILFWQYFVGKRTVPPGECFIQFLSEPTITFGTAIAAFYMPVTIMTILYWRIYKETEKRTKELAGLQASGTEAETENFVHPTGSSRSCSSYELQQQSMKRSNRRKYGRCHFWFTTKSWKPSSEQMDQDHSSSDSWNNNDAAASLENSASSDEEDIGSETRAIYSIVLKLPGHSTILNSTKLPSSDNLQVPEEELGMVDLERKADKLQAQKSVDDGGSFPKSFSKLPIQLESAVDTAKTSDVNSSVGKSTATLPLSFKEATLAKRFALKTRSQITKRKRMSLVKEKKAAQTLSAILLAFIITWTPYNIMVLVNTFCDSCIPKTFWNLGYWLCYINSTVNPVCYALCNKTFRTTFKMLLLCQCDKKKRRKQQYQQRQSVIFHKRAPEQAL
Motilin receptor, sequence (O43193 whole entry): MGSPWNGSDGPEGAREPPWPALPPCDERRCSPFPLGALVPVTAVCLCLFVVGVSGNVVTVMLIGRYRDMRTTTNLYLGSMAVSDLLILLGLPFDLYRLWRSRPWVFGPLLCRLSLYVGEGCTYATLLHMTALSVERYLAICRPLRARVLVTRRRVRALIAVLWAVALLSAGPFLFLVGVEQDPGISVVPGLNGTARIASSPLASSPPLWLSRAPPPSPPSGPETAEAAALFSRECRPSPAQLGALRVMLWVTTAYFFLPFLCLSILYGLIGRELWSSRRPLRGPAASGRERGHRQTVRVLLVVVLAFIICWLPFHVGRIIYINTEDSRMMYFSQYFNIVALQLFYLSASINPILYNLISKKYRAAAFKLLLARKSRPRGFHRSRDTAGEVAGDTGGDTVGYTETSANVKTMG

Molecule	AC50 (D(3) dopamine receptor) [µM]	AC50 [1] [µM]	AC50 (Motilin receptor) [µM]	AC50 [2] [µM]	AC50 [3] [µM]	AC50 [4] [µM]	AC50 (Adenosine receptor A1) [µM]	AC50 (Histamine H3 receptor) [µM]	AC50 [5] [µM]	AC50 [6] [µM]
C=C[C@@]1(C)CC(=O)[C@]2(O)[C@@]3(C)[C@@H](O)CCC(C)(C)[C@@H]3[C@H](OC(=O)CCN(C)C)[C@H](OC(C)=O)[C@@]2(C)O1	> 30	> 30	7.8	> 30	> 30	> 30	> 30	> 30	> 30	–
NCCCC(O)(P(=O)(O)O)P(=O)(O)O [ALENDRONIC ACID]	–	–	> 10	> 10	–	> 10	> 30	> 10	> 10	> 10
Nc1ccc(C(=O)O)c(O)c1 [AMINOSALICYLIC ACID]	> 30	–	> 30	> 30	–	> 30	> 30	> 30	> 30	> 30
NS(=O)(=O)c1cc2c(cc1C(F)(F)F)NC(Cc1ccccc1)NS2(=O)=O (configuration not stated) [BENDROFLUMETHIAZIDE]	> 30	> 30	> 10	> 30	> 10	> 10	> 10	> 10	> 10	> 30
COc1cc(OC)c(C(=O)CCCN2CCCC2)c(OC)c1 [BUFLOMEDIL]	> 30	–	> 30	> 30	–	> 30	> 30	20	> 30	> 30
CCCCCCNC(=O)n1cc(F)c(=O)[nH]c1=O [CARMOFUR]	> 30	–	> 30	> 30	–	> 30	> 30	> 30	> 30	> 30
COCCOC(=O)C1=C(C)NC(C)=C(C(=O)OC/C=C/c2ccccc2)C1c1cccc([N+](=O)[O-])c1 (configuration not stated) [CILNIDIPINE]	> 30	> 30	24	> 30	> 30	> 30	> 30	> 30	> 30	> 30
CC(C)(C)NCC(O)c1cc(Cl)c(N)c(Cl)c1 (configuration not stated) [CLENBUTEROL]	> 30	–	> 30	> 30	–	> 30	> 30	> 30	> 30	> 30
COc1cccc2c1C(=O)c1c(O)c3c(c(O)c1C2=O)C[C@@](O)(C(C)=O)C[C@@H]3O[C@H]1C[C@H](N)[C@H](O)[C@H](C)O1 [DAUNORUBICIN]	17.9	–	> 30	12.8	–	> 30	> 30	18	10.8	16.2
N[C@H](Cc1cc(I)c(Oc2cc(I)c(O)c(I)c2)c(I)c1)C(=O)O [DEXTROTHYROXINE]	> 10	> 30	> 10	> 30	> 10	> 10	> 30	> 10	> 10	> 30
C[C@@H]1C[C@H]2[C@@H]3C[C@H](F)C4=CC(=O)C=C[C@]4(C)[C@@]3(F)[C@@H](O)C[C@]2(C)[C@H]1C(=O)CO [DIFLUCORTOLONE]	> 30	–	–	–	–	> 30	–	–	–	> 30
CC1(C)C(/C=C/C=C/C=C/C=C2\N(CCCCS(=O)(=O)O)c3ccc4ccccc4c3C2(C)C)=[N+](CCCCS(=O)(=O)[O-])c2ccc3ccccc3c21 [INDOCYANINE GREEN ACID FORM]	8.7	13	23	13	6.9	> 30	22	–	> 30	9.7
Nc1nc2c(c(=O)[nH]1)N(C=O)C(CNc1ccc(C(=O)N[C@@H](CCC(=O)O)C(=O)O)cc1)CN2 (some centres not stated) [LEUCOVORIN]	> 30	–	> 30	> 30	–	> 30	> 30	> 30	> 30	> 30
CC(C)OC(=O)C(C(=O)OC(C)C)=C1SC=CS1 [MALOTILATE]	> 30	> 30	> 30	> 30	> 30	> 30	> 30	> 30	> 30	> 30
O=C1Nc2ccc(Cl)cc2C(c2ccccc2)=NC1O (configuration not stated) [OXAZEPAM]	> 10	> 10	> 10	> 10	> 10	> 10	> 30	> 10	> 10	> 10
CC[N+]1(C)CCCC(OC(=O)C(O)(c2ccccc2)c2ccccc2)C1 (configuration not stated) [PIPENZOLATE]	> 30	0.019	> 30	> 30	> 30	> 30	> 30	> 30	> 30	> 30
C[n+]1ccccc1/C=N/O [PRALIDOXIME]	> 30	–	–	> 30	–	> 30	–	–	–	> 30
CCN(CC)CC(=O)Oc1ccc(NC(C)=O)cc1 [PROPACETAMOL]	> 30	> 30	> 30	> 30	> 30	> 30	> 30	> 30	> 30	> 30
CC(C)CC(N(C)C)C1(c2ccc(Cl)cc2)CCC1 (configuration not stated) [SIBUTRAMINE]	> 10	–	> 10	> 30	–	> 10	> 30	> 10	> 10	> 30
CC(C)(C)NC[C@H](O)COc1nsnc1N1CCOCC1 [TIMOLOL]	> 30	–	> 30	> 30	–	> 30	> 30	> 30	> 30	> 30
COc1cc2nccc(Oc3ccc(NC(=O)Nc4cc(C)on4)c(Cl)c3)c2cc1OC [TIVOZANIB]	–	–	–	–	–	> 30	–	–	> 3	–
CN1[C@@H]2CC[C@H]1C[C@@H](OC(=O)c1c[nH]c3ccccc13)C2 [TROPISETRON]	> 30	–	> 30	–	–	> 30	> 30	> 30	5.2	–
COc1ccc(C(CN(C)C)C2(O)CCCCC2)cc1 (configuration not stated) [VENLAFAXINE]	–	–	> 10	> 30	–	> 10	> 30	6.8	> 10	> 30
COLISTIN	> 30	> 30	–	> 30	> 30	> 30	–	–	–	> 30
